Measurements: PubChem BioAssay (NCI)
“And” between values parts separate entries of the source, which are not always exact repeats. Equal entries are not always repeated.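 Briefly, cells in 96-well plates were exposed to five compound concentrations for 48 h, and endpoints were estimated by linear interpolation. At the GI50, growth is halved. TGI: concentration producing complete growth inhibition.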

Tests used:
Test in all cases: inhibition of tumour cell growth, NCI panel, 48 h
COLO 205 colon = test system: COLO 205 colon
HOP-92 NSCLC = test system: HOP-92 NSCLC
IGROV1 ovarian = test system: IGROV1 ovarian
MDA-MB-435 = test system: MDA-MB-435
NCI-H226 lung = test system: NCI-H226 lung
NCI-H23 lung = test system: NCI-H23 lung
NCI-H460 lung = test system: NCI-H460 lung
OVCAR-3 ovarian = test system: OVCAR-3 ovarian
RPMI-8226 leukemia = test system: RPMI-8226 leukemia
RXF 393 renal = test system: RXF 393 renal

CN1C(=O)C(=Cc2cn(Cc3ccccc3)c3ccccc23)C(=O)N(C)C1=O
GI50 (COLO 205 colon): 0.712 µM | TGI (COLO 205 colon): 6.67 µM | GI50 (HOP-92 NSCLC): 14.7 µM | TGI (HOP-92 NSCLC): > 70.9 µM | GI50 (IGROV1 ovarian): 1.64 µM | GI50 (MDA-MB-435): > 83.3 µM | TGI (MDA-MB-435): > 100 µM | GI50 (NCI-H226 lung): 3.46 µM | TGI (NCI-H226 lung): 27.8 µM | GI50 (NCI-H23 lung): 44.2 µM | TGI (NCI-H23 lung): > 100 µM | GI50 (NCI-H460 lung): 1.24 µM | TGI (NCI-H460 lung): > 100 µM | GI50 (OVCAR-3 ovarian): 20.8 µM | TGI (OVCAR-3 ovarian): > 100 µM | GI50 (RPMI-8226 leukemia): 26.9 µM | TGI (RPMI-8226 leukemia): > 100 µM | GI50 (RXF 393 renal): 23.1 µM | TGI (RXF 393 renal): > 100 µM

C[C@]1(C(=O)O)N[C@H](C(=O)O)CS1
GI50 (COLO 205 colon): > 1000 µM | TGI (COLO 205 colon): > 1000 µM | GI50 (HOP-92 NSCLC): > 1000 µM | TGI (HOP-92 NSCLC): > 1000 µM | GI50 (IGROV1 ovarian): > 1000 µM | TGI (IGROV1 ovarian): > 1000 µM | GI50 (MDA-MB-435): > 1000 µM | TGI (MDA-MB-435): > 1000 µM | GI50 (NCI-H226 lung): > 1000 µM | TGI (NCI-H226 lung): > 1000 µM | GI50 (NCI-H23 lung): > 1000 µM | TGI (NCI-H23 lung): > 1000 µM | GI50 (NCI-H460 lung): > 1000 µM | TGI (NCI-H460 lung): > 1000 µM | GI50 (OVCAR-3 ovarian): 504 µM | TGI (OVCAR-3 ovarian): > 1000 µM | GI50 (RPMI-8226 leukemia): > 1000 µM | TGI (RPMI-8226 leukemia): > 1000 µM | GI50 (RXF 393 renal): > 1000 µM | TGI (RXF 393 renal): > 1000 µM

Oc1ccc2ccccc2c1C1NN=C(c2ccccc2)S1 (centres undefined)
GI50 (COLO 205 colon): 0.55 µM | TGI (COLO 205 colon): 16.3 µM | GI50 (HOP-92 NSCLC): 0.244 µM | TGI (HOP-92 NSCLC): 12.2 µM | GI50 (IGROV1 ovarian): 0.485 µM | TGI (IGROV1 ovarian): 30.3 µM | GI50 (MDA-MB-435): 0.632 µM | TGI (MDA-MB-435): 42.4 µM | GI50 (NCI-H226 lung): 0.647 µM | TGI (NCI-H226 lung): 14.2 µM | GI50 (NCI-H23 lung): 1.26 µM | TGI (NCI-H23 lung): 48.7 µM | GI50 (NCI-H460 lung): 0.34 µM | TGI (NCI-H460 lung): 11 µM | GI50 (OVCAR-3 ovarian): 0.443 µM | TGI (OVCAR-3 ovarian): 11.8 µM | GI50 (RPMI-8226 leukemia): 0.237 µM | TGI (RPMI-8226 leukemia): > 100 µM | GI50 (RXF 393 renal): 0.812 µM | TGI (RXF 393 renal): 20 µM

COc1ccc([I+]c2ccccc2)cc1
GI50 (COLO 205 colon): 5.95 µM | TGI (COLO 205 colon): > 100 µM | GI50 (HOP-92 NSCLC): 6.55 µM | TGI (HOP-92 NSCLC): 81.9 µM | GI50 (IGROV1 ovarian): 8.99 µM | TGI (IGROV1 ovarian): > 100 µM | GI50 (MDA-MB-435): 10.1 µM | TGI (MDA-MB-435): > 100 µM | GI50 (NCI-H226 lung): 12.2 µM | TGI (NCI-H226 lung): > 100 µM | GI50 (NCI-H23 lung): 3.75 µM | TGI (NCI-H23 lung): > 100 µM | GI50 (NCI-H460 lung): 5.17 µM | TGI (NCI-H460 lung): > 100 µM | GI50 (OVCAR-3 ovarian): 8.86 µM | TGI (OVCAR-3 ovarian): > 100 µM | GI50 (RPMI-8226 leukemia): 2.04 µM | TGI (RPMI-8226 leukemia): > 78.1 µM | GI50 (RXF 393 renal): 13.9 µM | TGI (RXF 393 renal): > 100 µM

OC(C1CO1)C(O)C1CO1 (centres undefined)
GI50 (COLO 205 colon): 124 µM | TGI (COLO 205 colon): 127 µM and 285 µM | GI50 (HOP-92 NSCLC): 56.1 µM | TGI (HOP-92 NSCLC): 146 µM and 219 µM | GI50 (IGROV1 ovarian): 129 µM | TGI (IGROV1 ovarian): 149 µM and 327 µM | GI50 (MDA-MB-435): 46.1 µM | TGI (MDA-MB-435): 150 µM and 246 µM | GI50 (NCI-H226 lung): 47.7 µM and 122 µM | TGI (NCI-H226 lung): 136 µM and 412 µM | GI50 (NCI-H23 lung): 36.4 µM | TGI (NCI-H23 lung): 90 µM and 369 µM | GI50 (NCI-H460 lung): 2.14 µM | TGI (NCI-H460 lung): 53.5 µM and 140 µM | GI50 (OVCAR-3 ovarian): 101 µM | TGI (OVCAR-3 ovarian): 98.7 µM and 286 µM | GI50 (RPMI-8226 leukemia): 84 µM | TGI (RPMI-8226 leukemia): 150 µM and 861 µM | GI50 (RXF 393 renal): 71.4 µM | TGI (RXF 393 renal): 139 µM and 231 µM

CC1(C)N=C(N)N=C(N)N1c1ccc(CCc2ccc(Cl)cc2S(=O)(=O)F)c(Cl)c1
GI50 (COLO 205 colon): 10.4 µM | TGI (COLO 205 colon): 24 µM | GI50 (HOP-92 NSCLC): 16.6 µM | TGI (HOP-92 NSCLC): 58.3 µM | GI50 (IGROV1 ovarian): 0.942 µM | TGI (IGROV1 ovarian): > 100 µM | GI50 (MDA-MB-435): 4.27 µM | TGI (MDA-MB-435): 25.4 µM | GI50 (NCI-H226 lung): 17.9 µM | TGI (NCI-H226 lung): 44.3 µM | GI50 (NCI-H23 lung): 6.51 µM | TGI (NCI-H23 lung): > 100 µM | GI50 (NCI-H460 lung): 3.12 µM | TGI (NCI-H460 lung): > 100 µM | GI50 (OVCAR-3 ovarian): 4.82 µM | TGI (OVCAR-3 ovarian): 21.4 µM | GI50 (RPMI-8226 leukemia): 10.2 µM | TGI (RPMI-8226 leukemia): 38.5 µM | GI50 (RXF 393 renal): 23 µM | TGI (RXF 393 renal): > 100 µM
